Values quoted from earlier work, collected in patent US20210353673A1, “CD11B + PIEZO-1 + MACROPHAGES AND USES THEREOF” (ALBERT-LUDWIGS-UNIVERSITÄT FREIBURG, priority 2018, published 2021).

Test system: endothelial cells
Conditions: after 1 week, normal angiogenesis induced by VEGF

vascular endothelial growth factor [VEGF]
ECs in Go phase: 93%
